Experimental data reported in patent US8349886B2, “Nitrogenated 5-membered heterocyclic compound” (Takeda Pharmaceutical Company Limited, priority 2008, dated 2013).

These molecules were tested against T1, GST-hLGK1 (human liver type GK) (Homo sapiens, UniProt P35557) (assay: Measurement of GK activation value (Mant-ATP/Mant-ADP capillary electrophoresis)). Conditions: test compound 10 μmol/L; 5 mmol/L D-glucose; reaction rate as percentage of control group without test compound.
T1 construct: made in house; host or cells: Escherichia coli BL21 (Stratagene), plasmid pGEX6P-2/hLGK1
T1 sequence (P35557 1-464 isoform P35557-3): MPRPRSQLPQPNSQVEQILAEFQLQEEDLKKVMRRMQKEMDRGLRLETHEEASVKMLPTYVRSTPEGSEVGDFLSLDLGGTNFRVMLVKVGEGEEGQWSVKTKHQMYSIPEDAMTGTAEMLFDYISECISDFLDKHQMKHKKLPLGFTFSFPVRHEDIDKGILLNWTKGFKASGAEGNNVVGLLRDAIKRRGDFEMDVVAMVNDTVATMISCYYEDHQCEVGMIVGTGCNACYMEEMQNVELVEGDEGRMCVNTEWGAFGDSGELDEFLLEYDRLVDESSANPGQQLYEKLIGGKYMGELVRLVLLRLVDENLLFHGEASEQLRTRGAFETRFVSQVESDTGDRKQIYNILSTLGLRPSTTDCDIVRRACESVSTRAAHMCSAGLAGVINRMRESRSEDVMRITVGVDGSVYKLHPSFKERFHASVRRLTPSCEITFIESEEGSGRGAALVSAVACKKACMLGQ
Assay type: biochemical
Experimental: A plasmid DNA used for expression of a protein (GST-hLGK1) having GST (Glutathione S-transferase) added to the amino terminal of human liver type GK in Escherichia coli was prepared as follows.
BL21 strain (Stratagene) transformed with pGEX6P-2/hLGK1 obtained in Reference Example 1A was cultured with shaking in a 200 ml Erlenmeyer flask containing LB medium (50 ml) containing 100 μg/ml ampicillin at 37° C. for 14 hr. The cultured broth (25 ml) was diluted with LB medium (225 ml) containing 100 μg/ml ampicillin, and cultured with shaking in a 1 L Erlenmeyer flask at 37° C. for 1 hr. The Erlenmeyer flask after culture was cooled on ice, 100 mM Isopropyl-Thio-β-D-Galactopyranoside (IPTG) (125 μL) was added (final concentration 50 μM), and the cells were cultured at 17° C. for 20 hr. The cultures broth was centrifuged, and the obtained cells were disrupted by ultrasonication, and the object protein (GST-hLGK1) was purified from the supernatant using Glutathione Sepharose 4B (Amersham Biosciences).
GK enzyme reactions were performed in 50 mmol/L HEPES pH7.4, 200 mmol/L KCl, 5 mmol/L MgCl2, 2 mmol/L DTT, containing 50 μmol/L 2′-(or-3′)-O—(N-methylanthraniloyl)adenosine 5′-triphosphate (Mant-ATP) (Jena Bioscience GmbH), 5 mmol/L D-glucose, 5% DMSO and 6 μg/mL GST-hLGK1 obtained in Reference Example 2A in a total volume 50 μL. The reactions were performed in 384 well black plates (Nalge Nunc International K.K.). Prior to the reaction, the enzyme and test compound were incubated for 10 min at 37° C., and 25 mM D-glucose solution (10 μL) was added to start the reaction. The final concentration of the test compound is 10 μmol/L. After the incubation for 60 min at 37° C., the reaction was quenched by adding 25 μL of a quenching solution (containing 200 mM HEPES (pH 7.4), 20 mM MgCl2, 200 mM EDTA, 0.03% Triton-X 100, 0.3% Coating 3 reagent (Caliper Life Sciences, Inc.)).
Mant-ATP (substrate, 2′-(or-3′)-O—(N-methylanthraniloyl)adenosine 5′-triphosphate) and Mant-ADP (reaction resultant product) were separated from each well after the reaction by a microchip type capillary electrophoresis apparatus 250 HTS (Caliper Life Sciences, Inc.). The reaction rate [(reaction resultant product peak height)/(reaction resultant product peak height+substrate peak height)×100(%)] was calculated from the ratio of the substrate peak height and reaction resultant product peak height obtained by fluorescence detection (excitation wavelength 355 nm, measurement wavelength 460 nm) and used as the index of GK activity.
As a control group, the reaction rate was calculated in the same manner as above without the test compounds. […]
Work on COc1ccc2c(cnn2C(CC2CCOCC2)c2ccc(-c3ccc(C(O)C(C)(C)O)cn3)[nH]2)c1S(=O)(=O)C1CC1 (stereo not shown) [Example 5, 1-[6-(5-{1-[4-(cyclopropylsulfonyl)-5-methoxy-1H-indazol-1-yl]-2-(tetrahydro-2H-pyran-4-yl)ethyl}-1H-pyrrol-2-yl)pyridin-3-yl]-2-methylpropane-1,2-diol] yielded an Emax at 10 µM of 162%.
COc1ccnc2c1cnn2C(CC1CCOCC1)c1ccc(-c2ccc(C(O)C(C)(C)O)cn2)[nH]1 (stereo not shown) [Example 3, 1-(6-{5-[1-(4-methoxy-1H-pyrazolo[3,4-b]pyridin-1-yl)-2-(tetrahydro-2H-pyran-4-yl)ethyl]-1H-pyrrol-2-yl}pyridin-3-yl)-2-methylpropane-1,2-diol] gave an Emax at 10 µM of 124%.
For CC(C)(O)C(O)c1ccc(-c2ccc(C(CC3CCOCC3)n3ncc4c(S(=O)(=O)C5CC5)cccc43)[nH]2)nc1 (stereo not shown) [Example 4, 1-[6-(5-{1-[4-(cyclopropylsulfonyl)-1H-indazol-1-yl]-2-(tetrahydro-2H-pyran-4-yl)ethyl}-1H-pyrrol-2-yl)pyridin-3-yl]-2-methylpropane-1,2-diol], the Emax at 10 µM was 161%.
With Cn1nc(C(CC2CCOCC2)c2ccc(-c3ncc(CO)s3)[nH]2)cc1S(C)(=O)=O (stereo not shown) [Example 2, [2-(5-{1-[1-methyl-5-(methylsulfonyl)-1H-pyrazol-3-yl]-2-(tetrahydro-2H-pyran-4-yl)ethyl}-1H-pyrrol-2-yl)-1,3-thiazol-5-yl]methanol] the Emax at 10 µM was 138%.
